According to ChEMBL document CHEMBL3046801, “Synthesis of 2-R1-2-(4-(2-fluoroethoxy)benzamido)acetate as potential PET imaging agents” (Med Chem Res, 2012):

Legend:
Lung [1] = experiment: Biodistribution in tumor bearing Mus musculus KM (mouse) lung at 3.7 MBq, iv measured at 5 min by microPET imaging analysis; assay type: ADME, organism-based; conditions: in vivo
Liver [2] = experiment: Biodistribution in tumor bearing Mus musculus KM (mouse) liver at 3.7 MBq, iv measured at 120 min by microPET imaging analysis; assay type: ADME, organism-based; conditions: in vivo, 2 h
Tumour [3] = experiment: Biodistribution in tumor of Mus musculus KM (mouse) at 3.7 MBq, iv measured at 120 min by microPET imaging analysis; assay type: ADME, organism-based, Neoplasm; conditions: in vivo, 2 h
Brain [4] = experiment: Biodistribution in tumor bearing Mus musculus KM (mouse) brain at 3.7 MBq, iv by microPET imaging analysis; assay type: ADME, organism-based; conditions: in vivo, TDE = time-dependent effect
Liver [5] = experiment: Biodistribution in tumor bearing Mus musculus KM (mouse) liver at 3.7 MBq, iv measured at 15 min by microPET imaging analysis; assay type: ADME, organism-based; conditions: in vivo, 0.25 h
Tumour [6] = experiment: Biodistribution in tumor of Mus musculus KM (mouse) at 3.7 MBq, iv by microPET imaging analysis; assay type: ADME, organism-based, Neoplasm; conditions: in vivo, TDE = time-dependent effect
Kidney [7] = experiment: Biodistribution in tumor bearing Mus musculus KM (mouse) kidney at 3.7 MBq, iv measured at 5 min by microPET imaging analysis; assay type: ADME, organism-based; conditions: in vivo
Kidney [8] = experiment: Biodistribution in tumor bearing Mus musculus KM (mouse) kidney at 3.7 MBq, iv by microPET imaging analysis; assay type: ADME, organism-based; conditions: in vivo, TDE = time-dependent effect
Nucleic Acid [9] = experiment: Ratio of drug uptake in tumor to muscle in Mus musculus KM (mouse) at 3.7 MBq, iv at 5 min; assay type: ADME, organism-based; conditions: in vivo
Lung [10] = experiment: Biodistribution in tumor bearing Mus musculus KM (mouse) lung at 3.7 MBq, iv measured at 60 min by microPET imaging analysis; assay type: ADME, organism-based; conditions: in vivo, 1 h
[11] = Chemical stability in acetonitrile at 60 degC up to 30 min by HPLC analysis; assay type: physicochemical; conditions: 0.5 h
Brain [12] = experiment: Biodistribution in tumor bearing Mus musculus KM (mouse) brain at 3.7 MBq, iv measured at 120 min by microPET imaging analysis; assay type: ADME, organism-based; conditions: in vivo, 2 h
Spleen [13] = experiment: Biodistribution in tumor bearing Mus musculus KM (mouse) spleen at 3.7 MBq, iv measured at 60 min by microPET imaging analysis; assay type: ADME, organism-based; conditions: in vivo, 1 h
Heart [14] = experiment: Biodistribution in tumor bearing Mus musculus KM (mouse) heart at 3.7 MBq, iv measured at 120 min by microPET imaging analysis; assay type: ADME, organism-based; conditions: in vivo, 2 h
Blood = experiment: Biodistribution in tumor bearing Mus musculus KM (mouse) blood at 3.7 MBq, iv measured at 5 min by microPET imaging analysis; assay type: ADME, organism-based; conditions: in vivo
Brain [15] = experiment: Biodistribution in tumor bearing Mus musculus KM (mouse) brain at 3.7 MBq, iv measured at 30 min by microPET imaging analysis; assay type: ADME, organism-based; conditions: in vivo, 0.5 h
Kidney [16] = experiment: Clearance in tumor-bearing Mus musculus KM (mouse) kidney at 3.7 MBq, iv measured at 60 min; assay type: ADME, organism-based; conditions: in vivo, 1 h
Kidney [17] = experiment: Biodistribution in tumor bearing Mus musculus KM (mouse) kidney at 3.7 MBq, iv measured at 120 min by microPET imaging analysis; assay type: ADME, organism-based; conditions: in vivo, 2 h
Spleen [18] = experiment: Biodistribution in tumor bearing Mus musculus KM (mouse) spleen at 3.7 MBq, iv measured at 15 min by microPET imaging analysis; assay type: ADME, organism-based; conditions: in vivo, 0.25 h
Brain [19] = experiment: Biodistribution in tumor bearing Mus musculus KM (mouse) brain at 3.7 MBq, iv measured at 15 min by microPET imaging analysis; assay type: ADME, organism-based; conditions: in vivo, 0.25 h
Brain [20] = experiment: Biodistribution in tumor bearing Mus musculus KM (mouse) brain at 3.7 MBq, iv measured at 60 min by microPET imaging analysis; assay type: ADME, organism-based; conditions: in vivo, 1 h
Brain [21] = experiment: Biodistribution in tumor bearing Mus musculus KM (mouse) brain at 3.7 MBq, iv measured at 5 min by microPET imaging analysis; assay type: ADME, organism-based; conditions: in vivo
[22] = Metabolic stability in serum after 1 hr by HPLC analysis; assay type: ADME
Heart [23] = experiment: Biodistribution in tumor bearing Mus musculus KM (mouse) heart at 3.7 MBq, iv measured at 60 min by microPET imaging analysis; assay type: ADME, organism-based; conditions: in vivo, 1 h
[24] = Chemical stability in sodium chloride up to 2 hr by HPLC analysis; assay type: physicochemical
Spleen [25] = experiment: Biodistribution in tumor bearing Mus musculus KM (mouse) spleen at 3.7 MBq, iv measured at 30 min by microPET imaging analysis; assay type: ADME, organism-based; conditions: in vivo, 0.5 h
Liver [26] = experiment: Biodistribution in tumor bearing Mus musculus KM (mouse) liver at 3.7 MBq, iv measured at 60 min by microPET imaging analysis; assay type: ADME, organism-based; conditions: in vivo, 1 h
Kidney [27] = experiment: Biodistribution in tumor bearing Mus musculus KM (mouse) kidney at 3.7 MBq, iv measured at 15 min by microPET imaging analysis; assay type: ADME, organism-based; conditions: in vivo, 0.25 h
Liver [28] = experiment: Biodistribution in tumor bearing Mus musculus KM (mouse) liver at 3.7 MBq, iv by microPET imaging analysis; assay type: ADME, organism-based; conditions: in vivo, TDE = time-dependent effect
Muscle tissue [29] = experiment: Biodistribution in tumor bearing Mus musculus KM (mouse) muscle at 3.7 MBq, iv measured at 60 min by microPET imaging analysis; assay type: ADME, organism-based; conditions: in vivo, 1 h
Kidney [30] = experiment: Biodistribution in tumor bearing Mus musculus KM (mouse) kidney at 3.7 MBq, iv measured at 60 min by microPET imaging analysis; assay type: ADME, organism-based; conditions: in vivo, 1 h
[31] = Octanol-PBS partition coefficient of the compound at pH 7.4 by gamma counter; assay type: physicochemical; conditions: read-out: log KOW
Muscle tissue [32] = experiment: Biodistribution in tumor bearing Mus musculus KM (mouse) muscle at 3.7 MBq, iv measured at 30 min by microPET imaging analysis; assay type: ADME, organism-based; conditions: in vivo, 0.5 h
Heart [33] = experiment: Biodistribution in tumor bearing Mus musculus KM (mouse) heart at 3.7 MBq, iv by microPET imaging analysis; assay type: ADME, organism-based; conditions: in vivo, TDE = time-dependent effect
Nucleic Acid [34] = experiment: Ratio of drug uptake in tumor to muscle in Mus musculus KM (mouse) at 3.7 MBq, iv at 30 min; assay type: ADME, organism-based; conditions: in vivo, 0.5 h
Muscle tissue [35] = experiment: Biodistribution in tumor bearing Mus musculus KM (mouse) muscle at 3.7 MBq, iv measured at 15 min by microPET imaging analysis; assay type: ADME, organism-based; conditions: in vivo, 0.25 h
Spleen [36] = experiment: Biodistribution in tumor bearing Mus musculus KM (mouse) spleen at 3.7 MBq, iv measured at 5 min by microPET imaging analysis; assay type: ADME, organism-based; conditions: in vivo
Nucleic Acid [37] = experiment: Ratio of drug uptake in tumor to muscle in Mus musculus KM (mouse) at 3.7 MBq, iv at 120 min; assay type: ADME, organism-based; conditions: in vivo, 2 h
Spleen [38] = experiment: Biodistribution in tumor bearing Mus musculus KM (mouse) spleen at 3.7 MBq, iv by microPET imaging analysis; assay type: ADME, organism-based; conditions: in vivo, TDE = time-dependent effect
Tumour [39] = experiment: Biodistribution in tumor of Mus musculus KM (mouse) at 3.7 MBq, iv measured at 30 min by microPET imaging analysis; assay type: ADME, organism-based, Neoplasm; conditions: in vivo, 0.5 h
Heart [40] = experiment: Biodistribution in tumor bearing Mus musculus KM (mouse) heart at 3.7 MBq, iv measured at 5 min by microPET imaging analysis; assay type: ADME, organism-based; conditions: in vivo
Lung [41] = experiment: Biodistribution in tumor bearing Mus musculus KM (mouse) lung at 3.7 MBq, iv measured at 30 min by microPET imaging analysis; assay type: ADME, organism-based; conditions: in vivo, 0.5 h
Tumour [42] = experiment: Biodistribution in tumor of Mus musculus KM (mouse) at 3.7 MBq, iv measured at 15 min by microPET imaging analysis; assay type: ADME, organism-based, Neoplasm; conditions: in vivo, 0.25 h

Drug uptake (Lung [1]): 5.09 % ID/g | Drug uptake (Liver [2]): 0.68 % ID/g | Drug uptake (Tumour [3]): 1.21 % ID/g | Drug uptake (Brain [4]): tde | Drug uptake (Liver [5]): 2.11 % ID/g | Drug uptake (Tumour [6]): tde | Drug uptake (Kidney [7]): 7.25 % ID/g | Drug uptake (Kidney [8]): tde | Ratio (Nucleic Acid [9]): 1.05 | Drug uptake (Lung [10]): 0.87 % ID/g | Stability [11]: Stable | Drug uptake (Brain [12]): 0.6 % ID/g | Drug uptake (Spleen [13]): 0.64 % ID/g | Drug uptake (Heart [14]): 0.77 % ID/g | Drug uptake (Blood): 4.68 % ID/g | Drug uptake (Brain [15]): 0.51 % ID/g | CL (Kidney [16]): 97% | Drug uptake (Kidney [17]): 0.65 % ID/g | Drug uptake (Spleen [18]): 1.19 % ID/g | Drug uptake (Brain [19]): 1.26 % ID/g | Drug uptake (Brain [20]): 0.55 % ID/g | Drug uptake (Brain [21]): 1.51 % ID/g | Stability [22]: Stable | Drug uptake (Heart [23]): 0.91 % ID/g | Stability [24]: Stable | Drug uptake (Spleen [25]): 0.79 % ID/g | Drug uptake (Liver [26]): 0.73 % ID/g | Drug uptake (Kidney [27]): 4.07 % ID/g | Drug uptake (Liver [28]): tde | Drug uptake (Muscle tissue [29]): 0.53 % ID/g | Drug uptake (Kidney [30]): 0.97 % ID/g | logD [31]: 0.57 | Drug uptake (Muscle tissue [32]): 0.94 % ID/g | Drug uptake (Heart [33]): tde | Ratio (Nucleic Acid [34]): 1.82 | Drug uptake (Muscle tissue [35]): 1.25 % ID/g | Drug uptake (Spleen [36]): 2.04 % ID/g | Ratio (Nucleic Acid [37]): 1.03 | Drug uptake (Spleen [38]): tde | Drug uptake (Tumour [39]): 1.71 % ID/g | Drug uptake (Heart [40]): 2.64 % ID/g | Drug uptake (Lung [41]): 1.32 % ID/g | Drug uptake (Tumour [42]): 2.3 % ID/g
Structure (SMILES): COC(=O)CNC(=O)c1ccc(OCC[18F])cc1 [[18F]FEBA]
